Test results reported in publication PMC12203311, “Design, synthesis, in silico and in vitro evaluation of pyrrole–indole hybrids as dual tubulin and aromatase inhibitors with potent anticancer activities” (RSC Advances, 2025).

What was measured:
[1] = tested on: TK-10; experiment: NCI60 five-dose screen; assay type: cell-based; conditions: Homo sapiens, TK-10, renal cancer; for CC50: read-out: LC50 (the source's name)
[2] = tested on: UO-31; experiment: NCI60 five-dose screen; assay type: cell-based; conditions: Homo sapiens, UO-31, renal cancer; for CC50: read-out: LC50 (the source's name)
[3] = tested on: 786-0; experiment: NCI60 five-dose screen; assay type: cell-based; conditions: Homo sapiens, 786-0, renal cancer; for CC50: read-out: LC50 (the source's name)
[4] = tested on: SN12C; experiment: NCI60 five-dose screen; assay type: cell-based; conditions: Homo sapiens, renal cancer; for CC50: read-out: LC50 (the source's name)
[5] = tested on: UACC-62; experiment: NCI60 five-dose screen; assay type: cell-based; conditions: Homo sapiens, UACC-62, melanoma; for CC50: read-out: LC50 (the source's name)
[6] = tested on: SK-MEL-5; experiment: NCI60 five-dose screen; assay type: cell-based, human; conditions: Homo sapiens; for CC50: SK-MEL-5, SK-MEL-5, melanoma, read-out: LC50 (the source's name); for GI50: SK-MEL-5, melanoma
[7] = tested on: SK-MEL-28; experiment: NCI60 five-dose screen; assay type: cell-based; conditions: Homo sapiens, SK-MEL-28, melanoma; for CC50: read-out: LC50 (the source's name)
[8] = tested on: SNB-75; experiment: NCI60 five-dose screen; assay type: cell-based; conditions: Homo sapiens, SNB-75, CNS cancer; for CC50: read-out: LC50 (the source's name)
[9] = tested on: OVCAR-3; experiment: NCI60 five-dose screen; assay type: cell-based; conditions: Homo sapiens, OVCAR-3, ovarian cancer; for CC50: read-out: LC50 (the source's name)
[10] = tested on: T47D breast cancer cell line; experiment: Cytotoxicity MTT assay, T47D; assay type: cell-based, human; conditions: Homo sapiens, T47D; MTT, 48 hours
How it was run: (§1)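 T47D breast cancer and L929 mouse fibroblasts in DMEM/10% FBS, seeded at 10 000 cells/well and grown overnight. Compounds at designated concentrations for 48 h at 37 °C, then 0.5 mg/mL MTT for 3 h. Formazan dissolved in DMSO, A570 read, viability as % of DMSO vehicle.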

[11] = tested on: OVCAR-5; experiment: NCI60 five-dose screen; assay type: cell-based; conditions: Homo sapiens, OVCAR-5, ovarian cancer; for CC50: read-out: LC50 (the source's name)
[12] = tested on: L929 normal mouse fibroblast cell line; experiment: Cytotoxicity MTT assay, L929; assay type: cell-based; conditions: IC50 (L929)/IC50 (T47D)
How it was run: as §1

[13] = Cytotoxicity MTT assay, L929; assay type: cell-based, mouse; conditions: mouse, L929 fibroblast cells; MTT, 48 hours
How it was run: as §1

[14] = tested on: MDA-MB-468; experiment: NCI60 five-dose screen; assay type: cell-based; conditions: Homo sapiens, MDA-MB-468, breast cancer; for CC50: read-out: LC50 (the source's name)
[15] = tested on: HOP-92; experiment: NCI60 five-dose screen; assay type: cell-based; conditions: Homo sapiens, HOP-92, NSC lung cancer; for CC50: read-out: LC50 (the source's name)
[16] = tested on: A498; experiment: NCI60 five-dose screen; assay type: cell-based; conditions: Homo sapiens, A498, renal cancer; for CC50: read-out: LC50 (the source's name)
[17] = tested on: HT29; experiment: NCI60 five-dose screen; assay type: cell-based; conditions: Homo sapiens, HT-29, HT29, colon cancer; for CC50: read-out: LC50 (the source's name)
[18] = tested on: CAKI-1; experiment: NCI60 five-dose screen; assay type: cell-based; conditions: Homo sapiens, CAKI-1, renal cancer; for CC50: read-out: LC50 (the source's name)
[19] = tested on: U251; experiment: NCI60 five-dose screen; assay type: cell-based; conditions: Homo sapiens, U-251, U251, CNS cancer; for CC50: read-out: LC50 (the source's name)
[20] = tested on: ACHN; experiment: NCI60 five-dose screen; assay type: cell-based; conditions: Homo sapiens, renal cancer; for CC50: read-out: LC50 (the source's name)
[21] = tested on: CCRF-CEM; experiment: NCI60 five-dose screen; assay type: cell-based; conditions: Homo sapiens, leukemia; for CC50: read-out: LC50 (the source's name)
[22] = tested on: HCT-116; experiment: NCI60 five-dose screen; assay type: cell-based; conditions: Homo sapiens, HCT-116, colon cancer; for CC50: read-out: LC50 (the source's name)
[23] = tested on: SF-268; experiment: NCI60 five-dose screen; assay type: cell-based; conditions: Homo sapiens, SF-268, CNS cancer; for CC50: read-out: LC50 (the source's name)
[24] = tested on: PC-3; experiment: NCI60 five-dose screen; assay type: cell-based; conditions: Homo sapiens, PC-3, prostate cancer; for CC50: read-out: LC50 (the source's name)
[25] = tested on: COLO 205; experiment: NCI60 five-dose screen; assay type: cell-based, human; conditions: Homo sapiens; for GI50: COLO 205, colon cancer; for CC50: COLO 205, COLO 205, colon cancer, read-out: LC50 (the source's name)
[26] = tested on: HOP-62; experiment: NCI60 five-dose screen; assay type: cell-based; conditions: Homo sapiens, HOP-62, NSC lung cancer; for CC50: read-out: LC50 (the source's name)
[27] = tested on: SK-MEL-2; experiment: NCI60 five-dose screen; assay type: cell-based; conditions: Homo sapiens, SK-MEL-2, melanoma; for CC50: read-out: LC50 (the source's name)
[28] = tested on: BT-549; experiment: NCI60 five-dose screen; assay type: cell-based; conditions: Homo sapiens, BT-549, breast cancer; for CC50: read-out: LC50 (the source's name)
[29] = tested on: RPMI-8226; experiment: NCI60 five-dose screen; assay type: cell-based; conditions: Homo sapiens, RPMI-8226, leukemia; for CC50: read-out: LC50 (the source's name)
[30] = tested on: LOX IMVI; experiment: NCI60 five-dose screen; assay type: cell-based; conditions: Homo sapiens, melanoma; for CC50: read-out: LC50 (the source's name)
[31] = tested on: IGROV1; experiment: NCI60 five-dose screen; assay type: cell-based; conditions: Homo sapiens, IGROV-1; IGROV1, ovarian cancer

CCc1c[nH]c(/C=N/NC(=O)c2[nH]c3ccc(Br)cc3c2-c2ccccc2)c1 [Derivative 3t, (E)-5-Bromo-N′-((4-ethyl-1H-pyrrol-2-yl)methylene)-3-phenyl-1H-indole-2-carbohydrazide]
GI50 [1]: 2.83 µM
CC50 [1]: 42.1 µM
GI50 [2]: 1 µM
CC50 [2]: 40.7 µM
GI50 [3]: 0.646 µM
CC50 [3]: 38.5 µM
GI50 [4]: 0.372 µM
CC50 [4]: 30 µM
GI50 [5]: 0.442 µM
CC50 [5]: 32.1 µM
CC50 [6]: 6.96 µM
GI50 [6]: 0.279 µM
GI50 [7]: 0.839 µM
CC50 [7]: 46.6 µM
GI50 [8]: 0.44 µM
CC50 [8]: 37.8 µM
GI50 [9]: 0.316 µM
CC50 [9]: 41.7 µM
IC50 [10]: 4.6 ± 2.9 µM
GI50 [11]: 0.337 µM
CC50 [11]: 37.2 µM
Selectivity index (SI) [12]: 1.54
IC50 at 48 h [13]: 7.1 ± 3.6 µM
GI50 [14]: 0.263 µM
CC50 [14]: 9.22 µM
GI50 [15]: 2.57 µM
CC50 [15]: 33 µM
GI50 [16]: 13.7 µM
CC50 [16]: 54.5 µM
GI50 [17]: 0.308 µM
CC50 [17]: 21 µM
GI50 [18]: 1.05 µM
CC50 [18]: 34.4 µM
GI50 [19]: 0.373 µM
CC50 [19]: 38.2 µM
GI50 [20]: 0.628 µM
CC50 [20]: 35.5 µM
GI50 [21]: 0.368 µM
CC50 [21]: > 100 µM
GI50 [22]: 0.385 µM
CC50 [22]: 40.3 µM
GI50 [23]: 0.861 µM
CC50 [23]: 51.9 µM
GI50 [24]: 0.529 µM
CC50 [24]: 57 µM
GI50 [25]: 0.207 µM
GI50 [26]: 1.35 µM
CC50 [26]: 37.5 µM
GI50 [27]: 0.454 µM
CC50 [27]: 43.8 µM
GI50 [28]: 0.39 µM
CC50 [28]: 23.9 µM
GI50 [29]: 0.343 µM
CC50 [29]: > 100 µM
GI50 [30]: 0.427 µM
CC50 [30]: 8.27 µM
GI50 [31]: 0.888 µM
LC50 (concentration causing 50% net cell kill) [31]: 48.6 µM

CCc1cc[nH]c1/C=N/NC(=O)c1[nH]c2ccc(Br)cc2c1-c1ccccc1 [Derivative 3u, (E)-5-Bromo-N′-((3-ethyl-1H-pyrrol-2-yl)methylene)-3-phenyl-1H-indole-2-carbohydrazide]
GI50 [1]: 5.05 µM
CC50 [1]: 41.6 µM
GI50 [2]: 2.94 µM
CC50 [2]: 39.7 µM
GI50 [3]: 3.51 µM
CC50 [3]: 44.3 µM
GI50 [4]: 2.26 µM
CC50 [4]: 34 µM
GI50 [5]: 2.48 µM
CC50 [5]: 30.8 µM
CC50 [6]: 27.2 µM
GI50 [6]: 2.54 µM
GI50 [7]: 3.46 µM
CC50 [7]: 40.1 µM
GI50 [8]: 4.94 µM
CC50 [8]: 43.4 µM
GI50 [9]: 3.2 µM
CC50 [9]: 44 µM
IC50 [10]: 6.2 ± 3.6 µM
GI50 [11]: 6.77 µM
CC50 [11]: 45.4 µM
Selectivity index (SI) [12]: 1.97
IC50 at 48 h [13]: 12.2 ± 0.7 µM
GI50 [14]: 2.72 µM
CC50 [14]: 32.1 µM
GI50 [15]: 3.8 µM
CC50 [15]: 44.3 µM
GI50 [16]: 1.45 µM
CC50 [16]: 55.4 µM
GI50 [17]: 2.17 µM
CC50 [17]: 39.3 µM
GI50 [18]: 6.04 µM
CC50 [18]: 45.3 µM
GI50 [19]: 2.15 µM
CC50 [19]: 37.8 µM
GI50 [20]: 3.27 µM
CC50 [20]: 36.7 µM
GI50 [21]: 2.35 µM
CC50 [21]: 63.8 µM
GI50 [22]: 2.5 µM
CC50 [22]: 44 µM
GI50 [23]: 2.86 µM
CC50 [23]: 42.7 µM
GI50 [24]: 3.09 µM
CC50 [24]: 47.6 µM
CC50 [25]: 41.3 µM
GI50 [25]: 2.96 µM
GI50 [26]: 3.77 µM
CC50 [26]: 45.8 µM
GI50 [27]: 6.77 µM
CC50 [27]: 45.8 µM
GI50 [28]: 2.7 µM
CC50 [28]: 34.2 µM
GI50 [29]: 2.04 µM
CC50 [29]: 78.6 µM
GI50 [30]: 2.42 µM
CC50 [30]: 32.3 µM
GI50 [31]: 3.52 µM
LC50 (concentration causing 50% net cell kill) [31]: 44 µM

CCOC(=O)c1cc(/C=N/NC(=O)c2[nH]c3ccc(Br)cc3c2-c2ccccc2)c[nH]1 [Derivative 3v, Ethyl (E)-4-((2-(5-bromo-3-phenyl-1H-indole-2-carbonyl)hydrazono)methyl)-1H-pyrrole-2-carboxylate]
GI50 [1]: 12.5 µM
CC50 [1]: 80.7 µM
GI50 [2]: 4.21 µM
CC50 [2]: 61.9 µM
GI50 [3]: 6.01 µM
CC50 [3]: 53.3 µM
GI50 [4]: 3.63 µM
CC50 [4]: 38.1 µM
GI50 [5]: 3.18 µM
CC50 [5]: 40.7 µM
CC50 [6]: 17.9 µM
GI50 [6]: 2.01 µM
GI50 [7]: 4.73 µM
CC50 [7]: 48.5 µM
GI50 [8]: 1.95 µM
CC50 [8]: 90.6 µM
GI50 [9]: 3.23 µM
CC50 [9]: 33.4 µM
IC50 [10]: 24.9 ± 8.4 µM
GI50 [11]: 3.49 µM
CC50 [11]: 37.4 µM
Selectivity index (SI) [12]: 3.62
IC50 at 48 h [13]: 90.1 ± 40.3 µM
GI50 [14]: 2.6 µM
CC50 [14]: 34 µM
GI50 [15]: 7.99 µM
CC50 [15]: > 100 µM
GI50 [16]: 12.9 µM
CC50 [16]: 52.1 µM
GI50 [17]: 3.33 µM
CC50 [17]: 35.3 µM
GI50 [18]: 3.2 µM
CC50 [18]: 40.2 µM
GI50 [19]: 3.8 µM
CC50 [19]: 37.6 µM
GI50 [20]: 4.87 µM
CC50 [20]: 49.9 µM
GI50 [21]: 3.7 µM
CC50 [21]: > 100 µM
GI50 [22]: 3.42 µM
CC50 [22]: 50.5 µM
GI50 [23]: 6.04 µM
CC50 [23]: > 100 µM
GI50 [24]: 4.07 µM
CC50 [24]: > 100 µM
CC50 [25]: 34.8 µM
GI50 [25]: 3.51 µM
GI50 [26]: 6.66 µM
CC50 [26]: 69.2 µM
GI50 [27]: 4.37 µM
CC50 [27]: 47.3 µM
GI50 [28]: 13.4 µM
CC50 [28]: 60.2 µM
GI50 [29]: 3.84 µM
CC50 [29]: > 100 µM
GI50 [30]: 4.31 µM
CC50 [30]: 41.1 µM
GI50 [31]: 3.75 µM
